The text below walks through data of US20060084688A1, “Aromatic sulfone hydroxamic acid metalloprotease inhibitor” (priority 1997, published 2006).

What all share (experiment): biochemical
Common to all, as to conditions: Inhibition Table B

One experiment concerns the target recombinant human MMP-13 (Homo sapiens, UniProt P45452).
A further experiment addresses T1, recombinant human MMP-1 (Homo sapiens, UniProt P03956).
T1 construct: made in house; host or cells: transfected HT-1080 cells
T1 sequence (P03956 100-469): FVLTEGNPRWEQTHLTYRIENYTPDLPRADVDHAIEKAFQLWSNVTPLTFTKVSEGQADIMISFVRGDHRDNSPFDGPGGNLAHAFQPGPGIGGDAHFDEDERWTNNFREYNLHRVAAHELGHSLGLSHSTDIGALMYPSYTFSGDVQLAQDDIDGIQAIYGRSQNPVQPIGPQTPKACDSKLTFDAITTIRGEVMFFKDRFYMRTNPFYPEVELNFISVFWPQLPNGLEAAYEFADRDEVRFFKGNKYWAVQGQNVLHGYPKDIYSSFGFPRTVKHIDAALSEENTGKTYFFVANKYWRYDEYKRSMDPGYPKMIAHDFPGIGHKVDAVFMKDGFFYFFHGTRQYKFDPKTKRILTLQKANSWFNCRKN

The next experiment addresses T2, recombinant human MMP-2 (Homo sapiens, UniProt P08253).
T2 sequence (P08253 110-660): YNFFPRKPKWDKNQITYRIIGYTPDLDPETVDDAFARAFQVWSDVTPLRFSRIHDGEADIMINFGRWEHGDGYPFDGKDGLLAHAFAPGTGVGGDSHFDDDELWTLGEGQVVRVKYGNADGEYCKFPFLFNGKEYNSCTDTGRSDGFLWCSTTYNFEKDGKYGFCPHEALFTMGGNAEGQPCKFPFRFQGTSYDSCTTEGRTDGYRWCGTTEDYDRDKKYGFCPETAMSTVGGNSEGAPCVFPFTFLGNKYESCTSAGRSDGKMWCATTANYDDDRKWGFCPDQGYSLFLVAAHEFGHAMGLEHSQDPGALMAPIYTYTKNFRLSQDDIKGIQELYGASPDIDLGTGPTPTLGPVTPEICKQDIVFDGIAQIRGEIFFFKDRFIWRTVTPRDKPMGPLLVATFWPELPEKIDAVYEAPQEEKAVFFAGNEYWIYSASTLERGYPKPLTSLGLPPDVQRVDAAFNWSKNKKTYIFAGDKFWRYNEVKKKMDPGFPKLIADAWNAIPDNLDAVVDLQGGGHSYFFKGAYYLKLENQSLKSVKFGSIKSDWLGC

Where a name gives a salt, the structure may show the parent alone.

The term IC50 denotes the concentration that gives 50% inhibition.

As for `O=C(C1CCN(c2ccc(S(=O)(=O)C3(C(=O)NO)CCOCC3)cc2)CC1)N1CCc2ccccc2C1` [Example 199], the IC50 on recombinant human MMP-13 is 1.4 nM; on recombinant human MMP-1, > 10000 nM; at recombinant human MMP-2, 155 nM.

Consider `O=C(NO)C1CCN(c2ccc(S(=O)(=O)C3(C(=O)NO)CCOCC3)cc2)CC1` [Example 137], for which the half-inhibitory concentration (IC50) on recombinant human MMP-13 was 34.7 nM; at recombinant human MMP-1, > 10000 nM; on recombinant human MMP-2, 300 nM.

As for `C#CCN1CCC(C(=O)NO)(S(=O)(=O)c2ccc([S+]([O-])c3ccccc3)cc2)CC1` (stereo not drawn) [Example 47b], the IC50 was 3100 nM on recombinant human MMP-13, > 10000 nM at recombinant human MMP-1 and 3000 nM at recombinant human MMP-2.

In the case of `CC(C)NC(=O)C1CCN(c2ccc(S(=O)(=O)C3(C(=O)NO)CCOCC3)cc2)CC1` [Example 184], the half-maximal inhibitory concentration (IC50) at recombinant human MMP-13 is 7 nM; on recombinant human MMP-1, > 10000 nM; on recombinant human MMP-2 it was 94 nM.

As to `CN(C)C(=O)C1CCN(c2ccc(S(=O)(=O)C3(C(=O)NO)CCOCC3)cc2)CC1` [Example 147], the IC50 on recombinant human MMP-13 is 31 nM; at recombinant human MMP-1 it was > 10000 nM; at recombinant human MMP-2, 2700 nM.

Consider `O=C(C1CCN(c2ccc(S(=O)(=O)C3(C(=O)NO)CCOCC3)cc2)CC1)N(Cc1ccccc1)Cc1ccccc1` [Example 198], for which the IC50 was 14.5 nM on recombinant human MMP-13, > 10000 nM on recombinant human MMP-1 and 270 nM at recombinant human MMP-2.

On to `O=C(C1CCN(c2ccc(S(=O)(=O)C3(C(=O)NO)CCOCC3)cc2)CC1)N1CCCC2CCCCC21` (stereo not drawn) [Example 177], for which the IC50 is 21 nM at recombinant human MMP-13, > 10000 nM at recombinant human MMP-1 and 400 nM at recombinant human MMP-2.

As for `O=C(NCc1cccnc1)C1CCN(c2ccc(S(=O)(=O)C3(C(=O)NO)CCOCC3)cc2)CC1` [Example 186], the values for the IC50 on recombinant human MMP-13, on recombinant human MMP-1 and at recombinant human MMP-2 were 10 nM, > 10000 nM and 120 nM, respectively.

With `NCCCNC(=O)C1CCN(c2ccc(S(=O)(=O)C3(C(=O)NO)CCOCC3)cc2)CC1` [Example 133], the IC50 on recombinant human MMP-13 was 27 nM; on recombinant human MMP-1 it was > 10000 nM; at recombinant human MMP-2, 90 nM.

With `O=C(C1CCCN(c2ccc(S(=O)(=O)C3(C(=O)NO)CCOCC3)cc2)C1)N1CCNCC1` (stereo not drawn) [Example 158], the IC50 on recombinant human MMP-13 is 80 nM; at recombinant human MMP-1, > 10000 nM; on recombinant human MMP-2, 5000 nM.

For `O=C(NO)C1(S(=O)(=O)c2ccc(-c3ccc(C(F)(F)F)cc3)cc2)CCOCC1` [Example 221], the 50% inhibitory concentration (IC50) on recombinant human MMP-13 is < 1 nM; at recombinant human MMP-1, 1600 nM; at recombinant human MMP-2, < 1 nM.

With `O=C(C1CCN(c2ccc(S(=O)(=O)C3(C(=O)NO)CCOCC3)cc2)CC1)N1CCCCC1` [Example 149], the IC50 is 15.5 nM at recombinant human MMP-13, > 10000 nM on recombinant human MMP-1 and 1600 nM at recombinant human MMP-2.

Turning to `O=C(O)CNC(=O)C1CCN(c2ccc(S(=O)(=O)C3(C(=O)NO)CCOCC3)cc2)CC1` [Example 135], the IC50 on recombinant human MMP-13 was 65 nM; at recombinant human MMP-1, > 10000 nM; at recombinant human MMP-2, 500 nM.

With `O=C(C1CCCN(c2ccc(S(=O)(=O)C3(C(=O)NO)CCOCC3)cc2)C1)N1CCCCCC1` (stereo not drawn) [Example 162], the IC50 on recombinant human MMP-13 was > 100 nM; at recombinant human MMP-1, > 10000 nM; at recombinant human MMP-2, > 1000 nM.

Regarding `O=C(O)C1CCCN(c2ccc(S(=O)(=O)C3(C(=O)NO)CCOCC3)cc2)C1` (stereo not drawn) [Example 138], the IC50 at recombinant human MMP-13 is > 100 nM; on recombinant human MMP-1 it was > 10000 nM; on recombinant human MMP-2, > 100 nM.

Turning to `CCOC(=O)C1CCCN(C(=O)C2CCN(c3ccc(S(=O)(=O)C4(C(=O)NO)CCOCC4)cc3)CC2)C1` (stereo not drawn) [Example 153], the results for the IC50 at recombinant human MMP-13, at recombinant human MMP-1 and on recombinant human MMP-2 were 13.5 nM, > 10000 nM and 2700 nM, respectively.

Turning to `CN(C)[C@H]1CCN(C(=O)C2CCN(c3ccc(S(=O)(=O)C4(C(=O)NO)CCOCC4)cc3)CC2)C1` [Example 174], the IC50 at recombinant human MMP-13 was > 100 nM; on recombinant human MMP-1 it was 8000 nM; at recombinant human MMP-2, 900 nM.

On to `O=C(C1CCCN(c2ccc(S(=O)(=O)C3(C(=O)NO)CCOCC3)cc2)C1)N1CCCC1` (stereo not drawn) [Example 172], for which the IC50 at recombinant human MMP-13 was > 100 nM; on recombinant human MMP-1, > 10000 nM; at recombinant human MMP-2, > 1000 nM.

As to `CC(C)[C@H](N)C(=O)N1CCN(c2ccc(S(=O)(=O)C3(C(=O)NO)CCOCC3)cc2)CC1` [Example 204], the values for the IC50 at recombinant human MMP-13, at recombinant human MMP-1 and at recombinant human MMP-2 were 27.1 nM, > 10000 nM and 25 nM, respectively.

For `CC1(C)C[C@@H]2C[C@@](C)(CN2C(=O)C2CCCN(c3ccc(S(=O)(=O)C4(C(=O)NO)CCOCC4)cc3)C2)C1` (stereo partly drawn) [Example 163], the IC50 was 77.4 nM on recombinant human MMP-13, > 10000 nM at recombinant human MMP-1 and 4000 nM on recombinant human MMP-2.

Consider `O=C(NCc1ccncc1)C1CCN(c2ccc(S(=O)(=O)C3(C(=O)NO)CCOCC3)cc2)CC1` [Example 195], for which, at recombinant human MMP-13, the IC50 was found to be 14.5 nM.

As to `C#CCN1CCC(C(=O)NO)(S(=O)(=O)c2ccc(Sc3ccc(Cl)cc3)cc2)CC1` [Example 44b, 4-[[4-(4-chlorophenyl)thio]phenyl]sulfonyl]-N-hydroxy-1-(propynyl)-4-piperidinecarboxamide, monohydrochloride], the values for the IC50 on recombinant human MMP-13, on recombinant human MMP-1 and on recombinant human MMP-2 were > 10000 nM, > 10000 nM and 8000 nM, respectively.

`O=C(N1CCNCC1)N1CCN(c2ccc(S(=O)(=O)C3(C(=O)NO)CCOCC3)cc2)CC1` [Example 209]: the IC50 at recombinant human MMP-13 is 20 nM; on recombinant human MMP-1 it was > 10000 nM; on recombinant human MMP-2 it was 19 nM.

Turning to `CCOC(=O)C1CCN(C(=O)C2CCN(c3ccc(S(=O)(=O)C4(C(=O)NO)CCOCC4)cc3)CC2)CC1` [Example 152], the IC50 on recombinant human MMP-13 was 16.5 nM; on recombinant human MMP-1 it was > 10000 nM; at recombinant human MMP-2 it was 2400 nM.

For `O=C(NO)C1CCCN(c2ccc(S(=O)(=O)C3(C(=O)NO)CCOCC3)cc2)C1` (stereo not drawn) [Example 146], the IC50 at recombinant human MMP-13 is 32.6 nM; at recombinant human MMP-1, > 10000 nM; on recombinant human MMP-2 it was 650 nM.

Take `O=C([C@@H]1CCCN1)N1CCN(c2ccc(S(=O)(=O)C3(C(=O)NO)CCOCC3)cc2)CC1` [Example 203]: the values for the IC50 at recombinant human MMP-13, at recombinant human MMP-1 and at recombinant human MMP-2 were 30 nM, 8500 nM and 31 nM, respectively.

For the molecule `CN(C)CCCN(CCCN(C)C)C(=O)C1CCN(c2ccc(S(=O)(=O)C3(C(=O)NO)CCOCC3)cc2)CC1` [Example 183], the IC50 was 40 nM at recombinant human MMP-13, > 10000 nM on recombinant human MMP-1 and 288 nM at recombinant human MMP-2.

For `O=C(C1CCCN(c2ccc(S(=O)(=O)C3(C(=O)NO)CCOCC3)cc2)C1)N1CCCCC1` (stereo not drawn) [Example 156], the IC50 at recombinant human MMP-13 is 27.8 nM; at recombinant human MMP-1, > 10000 nM; at recombinant human MMP-2, 3300 nM.

In the case of `O=C(NO)C1(S(=O)(=O)c2ccc(-c3cc4ccccc4o3)cc2)CCOCC1` [Example 229], the IC50 on recombinant human MMP-13 was < 1 nM; at recombinant human MMP-1 it was > 10000 nM; on recombinant human MMP-2 it was < 1 nM.

As to `O=C(C1CCCN(c2ccc(S(=O)(=O)C3(C(=O)NO)CCOCC3)cc2)C1)N1CCCC2CCCCC21` (stereo not drawn) [Example 170], the figures for the IC50 on recombinant human MMP-13 and on recombinant human MMP-2 were > 100 nM and > 1000 nM, respectively.

In the case of `CNC(=O)C1CCCN(c2ccc(S(=O)(=O)C3(C(=O)NO)CCOCC3)cc2)C1` (stereo not drawn) [Example 139], the IC50 on recombinant human MMP-13 was 25.4 nM; at recombinant human MMP-1, > 10000 nM.

Turning to `O=C(C1CCCN(c2ccc(S(=O)(=O)C3(C(=O)NO)CCOCC3)cc2)C1)N1CCOCC1` (stereo not drawn) [Example 140], the values for the IC50 at recombinant human MMP-13 and at recombinant human MMP-1 were 60 nM and > 10000 nM, respectively.

Regarding `O=C(NCCO)C1CCN(c2ccc(S(=O)(=O)C3(C(=O)NO)CCOCC3)cc2)CC1` [Example 132], the IC50 was > 10000 nM at recombinant human MMP-1 and 420 nM at recombinant human MMP-2.

Regarding `C[C@@H]1CN(C(=O)C2CCCN(c3ccc(S(=O)(=O)C4(C(=O)NO)CCOCC4)cc3)C2)C[C@H](C)O1` (stereo partly drawn) [Example 169], the half-maximal inhibitory concentration (IC50) on recombinant human MMP-13 is > 100 nM; on recombinant human MMP-2, > 1000 nM.

On to `N[C@H]1CCN(C(=O)C2CCN(c3ccc(S(=O)(=O)C4(C(=O)NO)CCOCC4)cc3)CC2)C1` [Example 175], for which the IC50 on recombinant human MMP-13 was > 100 nM; on recombinant human MMP-2 it was > 1000 nM.

For `O=C(NC1CCCCCC1)C1CCN(c2ccc(S(=O)(=O)C3(C(=O)NO)CCOCC3)cc2)CC1` [Example 194], the IC50 was found to be 8 nM on recombinant human MMP-13 and 165 nM on recombinant human MMP-2.

Consider `C[C@@H]1CN(C(=O)C2CCN(c3ccc(S(=O)(=O)C4(C(=O)NO)CCOCC4)cc3)CC2)C[C@H](C)O1` [Example 176], for which the IC50 amounted to 25 nM at recombinant human MMP-13 and 400 nM at recombinant human MMP-2.

`O=C(C1CCN(c2ccc(S(=O)(=O)C3(C(=O)NO)CCOCC3)cc2)CC1)N1CCCC1` [Example 179]: the IC50 at recombinant human MMP-1 is > 10000 nM; at recombinant human MMP-2, 440 nM.

For `CCCCNC(=O)C1CCN(c2ccc(S(=O)(=O)C3(C(=O)NO)CCOCC3)cc2)CC1` [Example 181], the IC50 at recombinant human MMP-13 amounted to 6.1 nM; at recombinant human MMP-2, 121 nM.
